For data set [1], the target named is CYP 2C19 (Homo sapiens, UniProt P33261). Nature of the data set: CYP inhibition 2C19. Format: in vitro ADME. The text has this:
(§1) Table 1 Physicochemical and in Vitro ADME Properties of DF2726A. | column: DF2726A

Data set [2] can be described thus: Metabolic stability, rat. Format: in vitro ADME. As to conditions: Test conc: 2.5 µM.
Excerpt: as §1

Data set [3] relates to F11 cells. Nature of the data set: Cell viability assay in F11 neuronal cells. As to conditions: 24 h, 5–20 µM.
Method: For the subsequent experiments, DF2726A was used at a final concentration of 1 µM, and oxaliplatin at a final concentration of 20 µM. For comparison, paclitaxel alone or in combination with DF2726A was also used.
F11 hybridoma cells (ECACC 08062601), chosen as a model of DRG neurons[22],[32],[33] were cultivated in DMEM (Euroclone, Milan, Italy) supplemented with 10% FBS (Sigma-Aldrich, St. Louis, MO, USA), 1% penicillin/streptomycin (Euroclone, MI, Italy) and 1% glutamine (Euroclone) at 37 °C, in humidified 95% air with 5% CO2 atmosphere. For all the experiments, cells were used at 18th passage.
Supplementary Fig. 2: Effect of DF2726A, oxaliplatin and paclitaxel treatment on neuronal cell
viability. Cell viability assay of F11 cells after treatment at different concentrations of DF 2726A
(DF; 1-20 µM), oxaliplatin (OXA, 5-60 µM), paclitaxel (PAC, 5-20 nM) and the combination of 20
µM oxaliplatin+DF2726A (Oxa+DF) and paclitaxel+DF2726A (PAC+DF) at 24 h. Data are means
Data set [4] deals with CYP 2D6 (Homo sapiens, UniProt P10635). Briefly: CYP inhibition 2D6. Format: in vitro ADME.
Excerpt: as §1

Data set [5] addresses T1, P-glycoprotein (P-gp) (Homo sapiens, UniProt P08183).
T1 construct: endogenous in cells; host or cells: Caco-2
Nature of the data set: P-gp inhibition (Caco-2 cell assay). Format: in vitro ADME.

The target of data set [6] is CYP 2C9 (Homo sapiens, UniProt P11712). Nature of the data set: CYP inhibition 2C9. Format: in vitro ADME.
Excerpt: as §1

Data set [7] deals with 55 targets among GCPRs, ion channels, enzymes and transporters. The settings on record: binding panel tested at 10 µM; ion channels up to 30 µM.
Method: target activities towards a panel of GPCRs, enzymes, ion channels, transporters and nuclear
water/HBSS to a final concentration of 10 μM. Cell membrane homogenates (48 μg protein) were
incubated for 60 min at 22°C with the respective reference compound in the absence or presence of
the test compound in a buffer containing 50 mM Tris-HCl (pH 7.4), 2 mM MgCl2 and 1 mM
EDTA. After incubation, the samples were filtered rapidly under vacuum through glass fiber filters
(GF/B, Packard Instruments, Meriden, CT, USA) presoaked with 0.3% polyethylenimine (PEI) and
rinsed several times with ice-cold 50 mM Tris-HCl using a 96-sample cell harvester (Unifilter,
Packard Instruments). The filters were dried, then counted for radioactivity in a scintillation counter
(Topcount, Packard Instruments) using a scintillation cocktail (Microscint-O, Packard Instruments).
The results were expressed as the percentage inhibition of the control radioligand-specific binding.
The compounds were tested at a single concentration of 10 µM in triplicate.
Tested targets were as follows:
GPCR: A2A (agonist radioligand), α1A (antagonist radioligand), α2A (antagonist radioligand), β1
(agonist radioligand), β2 (agonist radioligand), BK1 (antagonist and agonist radioligand), BK2
(antagonist and agonist radioligand), CB1 (antagonist and agonist radioligand), CB2 (antagonist and […]
Data set [8] deals with T2, human COX2 (Homo sapiens, UniProt P35354).
T2 construct: host or cells: Sf-9
Briefly: COX2 assay, PGE2 formation from arachidonic acid, recombinant enzyme. Type of data set: biochemical. The method, then: Protein binding in human, dog and rat plasma […]
in DMSO at a final concentration of 2 mM. […]
plasma to obtain a final concentration of 10 µM. Human, dog and rat plasma (200 µL) in triplicate […]
vials for LC-MS/MS analysis. […]
(§2) mM Tris-HCl (pH 8.0), 1.98 mM phenol and 1.02 µM hematine. Thereafter, the reaction was initiated by adding 4 µM (COX1) or 2 µM (COX2) of arachidonic acid and the mixture was incubated for 5 min at RT. For basal control measurements, arachidonic acid was omitted from the reaction mixture. Following incubation, t he reaction was stopped by the addition of 1 M HCl then 1 M Tris/HCl (pH 8.0) followed by cooling to 4°C.
(§3) The fluorescence acceptor (d2 labeled PGE2) and the fluorescence donor (anti -PGE2 antibody labeled with europium Cryptate) were then added. After 120 min, the fluorescence transfer corresponding to the amount of residual PGE2 was measured at λex=337 nm, λem=620 nm and λem=665 nm using a microplate reader (Envision, Perkin Elmer). The enzyme activity was determined by dividing the signal measured at 665 nm by that measured at 620 nm (ratio). The results were expressed as a percent age inhibition of the control enzyme activity. The standard inhibitory reference compound was Diclofenac, which was tested in each experiment at several concentrations to obtain an inhibition curve from which its IC50 value was calculated. […]

Data set [9] concerns p-FAK. Nature of the data set: p-FAK western blotting in F11-derived neurons. Format: cell-based. The settings on record: 24 h. (In general: In western blotting, separated proteins are transferred to a membrane and probed.)
Data set [10] has as its target T3, hERG channel (Homo sapiens, UniProt Q12809).
T3 construct: host or cells: CHO-K1
Briefly: hERG inhibition, automated patch clamp (QPatch 16) in CHO-K1 cells. Type of data set: cell-based. As to conditions: tested at 0.01-1 mM. The method, then: as §2, §3
The human ether-a-go-go related gene (hERG) inhibition assay was performed by Eurofins Panlabs Inc, USA. […] Single cell ionic currents were measured in the automated patch clamp configuration at room temperature by using QPatch 16 in strument. […]
On the technique in general: Block of hERG is tested as a sign of cardiac risk.

For data set [11], the system named is acetylated α-tubulin. Nature of the data set: Acetylated α-tubulin immunofluorescence of nerve fibres in paw sections of oxaliplatin rats. The settings on record: 30 mg/kg os, rat paw sections. Type of data set: in vivo, male Wistar rats. The method, then:
Animals were sacrificed and a biopsy (3 mm) was taken from pad of the right hind paw. Biopsies were immediately placed in Zamboni’s fixative, where they were left at 4 °C. Tissues were then transferred to 20% sucrose for at least 24 h and used for immunohistochemistry analysis. Specimens were frozen in Optimal Cutting Temperature compound (OCT, Sakura Finetek Inc, CA, USA) and sliced into 20 μm thick serial coronal sections by cryostat AMES LAB-TEK (Westmont, Illinois, USA).
In brief, sections were blocked with phosphate buffer saline (PBS) containing 10% (Bovine Serum Albumin) and 0.3% Tween-20, for 1 h at RT and incubated, overnight at 4 °C, with the primary antibodies: IL-8 (mouse, 1:25, R&D Systems Inc. Minneapolis, MN, USA), PGP9.5 (rabbit, 1:1000, AbD Serotec, NC, USA), acetylated alpha tubulin (mouse, 1:250, Abcam Cambridge, MA, USA) and collagen IV (goat, 1:25, Southern Biotech, Birmingham, AL, USA). Sections were then rinsed in PBS several times before incubation for 2 h at RT with secondary antibodies, donkey AlexaFluor 488 anti-rabbit or donkey AlexaFluor 633 (1:2000), goat anti-mouse conjugated with Alexafluor 488 (1:2000; Life Technologies, Camarillo, CA, USA). […]

In data set [12] the test system is IENFs (PGP9.5). Nature of the data set: Oxaliplatin-induced loss of IENFs, PGP9.5 immunofluorescence of paw sections. Type of data set: in vivo, male Wistar rats. The settings on record: 30 mg/kg os, rat paw sections. The method, then:
Animals were sacrificed and a biopsy (3 mm) was taken from pad of the right hind paw. Biopsies were immediately placed in Zamboni’s fixative, where they were left at 4 °C. Tissues were then transferred to 20% sucrose for at least 24 h and used for immunohistochemistry analysis. Specimens were frozen in Optimal Cutting Temperature compound (OCT, Sakura Finetek Inc, CA, USA) and sliced into 20 μm thick serial coronal sections by cryostat AMES LAB-TEK (Westmont, Illinois, USA). […]
Five slices were examined for each animal. For each slide, 4 fields were counted. For quantitative evaluation of IL-8/CINC-1 (the homolog of IL-8 in rat) and […], photomicrographs for each condition were analysed by ImageJ software (National Institutes of Health, Bethesda, MD, USA) as previously described. […] The signal was first measured on the tissue in an area devoid of signal at visual inspection and assumed as background; the threshold was then set at 1.5 times the background and the surface area and mean grey intensity were measured for all areas above the threshold. […]

Entries after “also recorded” stand apart in the source; their conditions may differ.

T2 sequence (P35354 18-604): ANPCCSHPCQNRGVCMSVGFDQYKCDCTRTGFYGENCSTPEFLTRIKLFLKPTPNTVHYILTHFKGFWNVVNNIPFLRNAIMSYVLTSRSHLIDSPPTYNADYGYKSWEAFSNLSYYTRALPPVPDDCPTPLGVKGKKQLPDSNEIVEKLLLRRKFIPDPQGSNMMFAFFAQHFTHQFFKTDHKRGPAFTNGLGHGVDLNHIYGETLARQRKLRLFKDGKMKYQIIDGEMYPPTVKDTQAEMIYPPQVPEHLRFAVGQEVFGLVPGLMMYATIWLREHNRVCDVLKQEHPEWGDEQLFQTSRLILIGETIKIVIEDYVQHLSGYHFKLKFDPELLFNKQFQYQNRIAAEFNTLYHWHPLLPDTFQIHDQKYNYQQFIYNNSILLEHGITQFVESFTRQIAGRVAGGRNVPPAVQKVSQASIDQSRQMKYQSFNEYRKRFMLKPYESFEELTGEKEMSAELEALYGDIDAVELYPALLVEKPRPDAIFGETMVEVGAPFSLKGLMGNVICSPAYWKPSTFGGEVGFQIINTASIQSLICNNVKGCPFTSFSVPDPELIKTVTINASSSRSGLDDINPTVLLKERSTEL
T1 sequence (P08183 whole entry): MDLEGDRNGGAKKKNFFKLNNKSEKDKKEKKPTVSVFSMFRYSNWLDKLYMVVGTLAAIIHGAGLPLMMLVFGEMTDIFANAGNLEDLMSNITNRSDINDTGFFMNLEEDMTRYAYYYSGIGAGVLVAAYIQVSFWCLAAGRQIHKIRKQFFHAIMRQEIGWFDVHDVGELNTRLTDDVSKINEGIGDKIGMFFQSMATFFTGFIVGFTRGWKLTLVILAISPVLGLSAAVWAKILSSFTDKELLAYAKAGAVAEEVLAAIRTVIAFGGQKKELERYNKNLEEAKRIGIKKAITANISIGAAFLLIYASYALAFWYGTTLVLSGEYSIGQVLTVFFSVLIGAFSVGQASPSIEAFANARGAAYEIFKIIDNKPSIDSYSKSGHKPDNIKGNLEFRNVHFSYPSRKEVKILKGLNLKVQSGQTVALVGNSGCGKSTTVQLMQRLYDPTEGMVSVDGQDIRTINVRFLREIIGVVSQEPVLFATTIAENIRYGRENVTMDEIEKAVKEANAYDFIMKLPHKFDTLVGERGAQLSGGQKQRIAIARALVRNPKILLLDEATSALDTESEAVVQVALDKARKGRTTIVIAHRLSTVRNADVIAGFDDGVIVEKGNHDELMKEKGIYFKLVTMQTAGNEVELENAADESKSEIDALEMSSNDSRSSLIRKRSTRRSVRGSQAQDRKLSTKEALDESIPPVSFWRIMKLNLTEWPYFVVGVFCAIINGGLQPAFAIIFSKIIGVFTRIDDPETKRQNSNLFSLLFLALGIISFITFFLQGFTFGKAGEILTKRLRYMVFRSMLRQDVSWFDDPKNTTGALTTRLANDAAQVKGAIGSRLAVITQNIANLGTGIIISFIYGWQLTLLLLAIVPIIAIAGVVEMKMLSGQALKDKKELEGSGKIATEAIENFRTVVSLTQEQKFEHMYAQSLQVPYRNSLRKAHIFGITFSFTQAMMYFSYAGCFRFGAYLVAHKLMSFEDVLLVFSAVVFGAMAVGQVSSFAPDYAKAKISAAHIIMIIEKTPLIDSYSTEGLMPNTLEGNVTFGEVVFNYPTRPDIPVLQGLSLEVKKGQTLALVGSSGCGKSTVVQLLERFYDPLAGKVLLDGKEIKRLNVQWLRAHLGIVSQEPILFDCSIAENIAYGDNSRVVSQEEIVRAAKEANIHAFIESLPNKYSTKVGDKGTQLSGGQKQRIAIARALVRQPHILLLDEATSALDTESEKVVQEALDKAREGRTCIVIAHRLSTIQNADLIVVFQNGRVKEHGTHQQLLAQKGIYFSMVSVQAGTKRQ
CYP 2C19, sequence (P33261 whole entry): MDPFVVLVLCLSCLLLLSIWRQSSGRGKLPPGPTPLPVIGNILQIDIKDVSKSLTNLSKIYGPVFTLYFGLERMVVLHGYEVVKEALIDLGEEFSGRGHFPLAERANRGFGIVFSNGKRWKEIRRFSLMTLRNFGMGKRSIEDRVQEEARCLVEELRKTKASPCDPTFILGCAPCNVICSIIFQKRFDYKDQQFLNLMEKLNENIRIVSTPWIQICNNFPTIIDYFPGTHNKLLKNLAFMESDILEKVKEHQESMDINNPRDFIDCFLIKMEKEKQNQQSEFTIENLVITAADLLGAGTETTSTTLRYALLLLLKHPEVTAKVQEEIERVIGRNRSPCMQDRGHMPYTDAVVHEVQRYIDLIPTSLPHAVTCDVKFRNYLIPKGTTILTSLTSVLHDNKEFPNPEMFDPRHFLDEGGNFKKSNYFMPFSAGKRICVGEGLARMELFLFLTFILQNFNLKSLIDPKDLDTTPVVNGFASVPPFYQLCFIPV
CYP 2C9, sequence (P11712 whole entry): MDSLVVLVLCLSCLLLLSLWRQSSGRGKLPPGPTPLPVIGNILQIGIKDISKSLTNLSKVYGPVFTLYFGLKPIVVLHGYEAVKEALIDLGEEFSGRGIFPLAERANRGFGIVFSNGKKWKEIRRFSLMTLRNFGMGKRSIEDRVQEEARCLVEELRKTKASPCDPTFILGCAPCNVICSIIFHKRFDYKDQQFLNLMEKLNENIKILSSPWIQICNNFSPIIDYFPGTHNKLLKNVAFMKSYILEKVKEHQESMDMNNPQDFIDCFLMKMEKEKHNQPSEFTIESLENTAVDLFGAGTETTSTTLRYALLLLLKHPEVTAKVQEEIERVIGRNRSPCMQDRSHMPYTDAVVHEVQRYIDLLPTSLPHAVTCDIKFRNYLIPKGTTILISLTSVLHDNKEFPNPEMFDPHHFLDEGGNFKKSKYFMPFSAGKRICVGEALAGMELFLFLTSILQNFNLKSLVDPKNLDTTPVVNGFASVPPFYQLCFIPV
CYP 2D6, sequence (P10635 whole entry): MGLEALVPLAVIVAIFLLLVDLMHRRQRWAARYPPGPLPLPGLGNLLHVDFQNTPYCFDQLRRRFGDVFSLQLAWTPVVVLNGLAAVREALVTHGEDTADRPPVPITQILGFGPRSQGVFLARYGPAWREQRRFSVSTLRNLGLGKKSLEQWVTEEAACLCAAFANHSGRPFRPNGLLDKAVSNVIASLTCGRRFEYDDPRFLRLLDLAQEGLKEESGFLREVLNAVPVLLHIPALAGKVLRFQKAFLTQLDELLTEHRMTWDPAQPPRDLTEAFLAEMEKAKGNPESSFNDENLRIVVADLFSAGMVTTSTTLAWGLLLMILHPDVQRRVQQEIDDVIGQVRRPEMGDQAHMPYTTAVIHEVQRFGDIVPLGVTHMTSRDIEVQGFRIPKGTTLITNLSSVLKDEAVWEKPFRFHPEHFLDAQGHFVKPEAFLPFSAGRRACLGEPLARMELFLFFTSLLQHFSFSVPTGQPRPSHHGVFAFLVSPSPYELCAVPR
T3 sequence (Q12809 whole entry): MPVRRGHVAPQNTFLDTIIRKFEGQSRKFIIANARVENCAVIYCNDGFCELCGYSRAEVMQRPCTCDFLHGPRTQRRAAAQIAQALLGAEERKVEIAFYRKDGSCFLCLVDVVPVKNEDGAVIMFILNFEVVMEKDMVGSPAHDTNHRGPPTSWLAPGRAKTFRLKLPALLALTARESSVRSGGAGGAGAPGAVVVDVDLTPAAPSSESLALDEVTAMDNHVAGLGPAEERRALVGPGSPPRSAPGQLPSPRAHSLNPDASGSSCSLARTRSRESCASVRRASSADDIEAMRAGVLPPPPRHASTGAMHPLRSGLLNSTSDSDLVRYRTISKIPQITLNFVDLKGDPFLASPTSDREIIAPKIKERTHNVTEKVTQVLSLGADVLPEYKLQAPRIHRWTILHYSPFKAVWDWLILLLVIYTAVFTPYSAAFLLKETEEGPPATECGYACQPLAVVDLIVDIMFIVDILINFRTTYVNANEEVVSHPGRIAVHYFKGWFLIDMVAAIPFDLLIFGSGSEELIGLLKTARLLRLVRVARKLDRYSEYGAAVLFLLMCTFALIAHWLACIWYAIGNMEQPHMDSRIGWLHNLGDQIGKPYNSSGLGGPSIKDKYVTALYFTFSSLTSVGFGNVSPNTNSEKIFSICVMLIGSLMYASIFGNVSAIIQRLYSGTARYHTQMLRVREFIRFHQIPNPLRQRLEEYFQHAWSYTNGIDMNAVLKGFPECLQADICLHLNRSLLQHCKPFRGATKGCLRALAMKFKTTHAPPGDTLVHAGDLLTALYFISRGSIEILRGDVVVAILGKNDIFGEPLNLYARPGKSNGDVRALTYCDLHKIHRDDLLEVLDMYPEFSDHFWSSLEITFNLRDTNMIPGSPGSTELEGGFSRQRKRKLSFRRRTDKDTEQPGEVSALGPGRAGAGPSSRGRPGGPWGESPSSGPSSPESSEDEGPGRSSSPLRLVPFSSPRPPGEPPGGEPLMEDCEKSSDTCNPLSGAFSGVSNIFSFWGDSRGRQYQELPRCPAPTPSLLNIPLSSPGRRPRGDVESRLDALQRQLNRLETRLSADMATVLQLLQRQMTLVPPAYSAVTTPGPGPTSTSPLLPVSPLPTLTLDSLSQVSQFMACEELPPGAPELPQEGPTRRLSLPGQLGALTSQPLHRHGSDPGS

On to `CC(C)(C(=O)O)c1ccc(Nc2nc(C(F)(F)F)cs2)cc1` [DF2726A], for which the IC50 in [1] was over 30 µM; in data set [4] it was over 30 µM; in [6] it was over 30 µM; in data set [10], over 1000 µM. The same compound had a Metabolic stability rat in [2] of 15.3 µL/min/10^6 cells. The Neuronal cell viability entry in data set [3] is given as “ineffective in modulating neuronal cell viability”. Moreover, the “P-glycoprotein (P-gp) inhibition” value in [5] was “no P-glycoprotein (P-gp) inhibition”. In addition, the “Selectivity for 55 targets in counterscreens” value in [7] is over 100 fold. Also, the “COX 2 Inhibition (50 µM)” value in data set [8] is “did not inhibit; also recorded: No Inhibition observed”. Moreover, the “p-FAK levels, oxaliplatin-treated neurons” value in data set [9] (DF2726A 1 µM + oxaliplatin 20 µM) is reported as “decreased in the presence of DF2726A”. In addition, the “p-FAK levels, paclitaxel-treated neurons” value in data set [9] (DF2726A + paclitaxel 10 nM) is “decreased in the presence of DF2726A”. In addition, the “Acetylated α-tubulin levels in nerve fibres of oxaliplatin rats” value in [11] is on record as “completely restored control conditions”. Also, in data set [12], the “Effect on oxaliplatin-induced loss of IENFs (PGP9.5)” value is “preventing the loss of epidermal innervation”.

As a reminder, the IC50 is the concentration needed to halve the response being measured.
